In patent US8829007B2 (priority 2009, dated 2014) one finds IC50 data, which are given here for 39 compounds.

This experiment concerns influenza A virus (A/PR/8/34). Kind of experiment: microbe, parasite or virus in culture. In kind it is cell-based. To be noted: read-out: IC50.
Setting [1] is: Influenza A virus, PR/8, MDCK, mean all, A/PR/8/34 infected MDCK cells, CPE assay.
Setting [2] is: mean all, A/PR/8/34 infected MDCK cells, CPE assay.

Read-outs that look alike come from different tables or passages of the source.

`O=C(N[C@@H]1CCCC[C@H]1Nc1nc(-c2c[nH]c3ncc(Cl)cc23)ncc1F)c1ccccc1` [Compound 352, N-[(1R,2R)-2-[[2-(5-chloro-1H-pyrrolo[2,3-b]pyridin-3-yl)-5-fluoro-pyrimidin-4-yl]amino]cyclohexyl]benzamide]: the IC50 under setting [1] was above 20 µM. Same read-out and setting: the value for `CS(=O)(=O)N[C@@H]1CCCC[C@H]1Nc1nc(-c2c[nH]c3ncc(Cl)cc23)ncc1F` [Compound 353, N-[(1R,2R)-2-[[2-(5-chloro-1H-pyrrolo[2,3-b]pyridin-3-yl)-5-fluoro-pyrimidin-4-yl]amino]cyclohexyl]methanesulfonamide] was above 20 µM; that for `CCCS(=O)(=O)N[C@@H]1CCCC[C@H]1Nc1nc(-c2c[nH]c3ncc(Cl)cc23)ncc1F` [Compound 354, N-[(1R,2R)-2-[[2-(5-chloro-1H-pyrrolo[2,3-b]pyridin-3-yl)-5-fluoro-pyrimidin-4-yl]amino]cyclohexyl]propane-1-sulfonamide] was above 20 µM; that for `CCCNC(=O)N[C@@H]1CCCC[C@H]1Nc1nc(-c2c[nH]c3ncc(Cl)cc23)ncc1F` [Compound 355, 1-[(1R,2R)-2-[[2-(5-chloro-1H-pyrrolo[2,3-b]pyridin-3-yl)-5-fluoro-pyrimidin-4-yl]amino]cyclohexyl]-3-propyl-urea] was above 20 µM. Same read-out and setting: the value for `CCC(=O)N[C@@H]1CCCC[C@H]1Nc1nc(-c2c[nH]c3ncccc23)ncc1F` [Compound 356, N-[(1R,2R)-2-[[5-fluoro-2-(1H-pyrrolo[2,3-b]pyridin-3-yl)pyrimidin-4-yl]amino]cyclohexyl]propanamide] was above 20 µM; that for `CCCC(=O)N[C@@H]1CCCC[C@H]1Nc1nc(-c2c[nH]c3ncccc23)ncc1F` [Compound 358, N-[(1R,2R)-2-[[5-fluoro-2-(1H-pyrrolo[2,3-b]pyridin-3-yl)pyrimidin-4-yl]amino]cyclohexyl]butanamide] was above 20 µM; that for `O=C(N[C@@H]1CCCC[C@H]1Nc1nc(-c2c[nH]c3ncccc23)ncc1F)C1CCCC1` [Compound 359, N-[(1R,2R)-2-[[5-fluoro-2-(1H-pyrrolo[2,3-b]pyridin-3-yl)pyrimidin-4-yl]amino]cyclohexyl]cyclopentanecarboxamide] was above 20 µM. Still for that read-out and setting: the value for `O=C(N[C@@H]1CCCC[C@H]1Nc1nc(-c2c[nH]c3ncccc23)ncc1F)c1ccccc1` [Compound 360, N-[(1R,2R)-2-[[5-fluoro-2-(1H-pyrrolo[2,3-b]pyridin-3-yl)pyrimidin-4-yl]amino]cyclohexyl]benzamide] was above 20 µM; that for `CS(=O)(=O)N[C@@H]1CCCC[C@H]1Nc1nc(-c2c[nH]c3ncccc23)ncc1F` [Compound 361, N-[(1R,2R)-2-[[5-fluoro-2-(1H-pyrrolo[2,3-b]pyridin-3-yl)pyrimidin-4-yl]amino]cyclohexyl]methanesulfonamide] was above 20 µM.

As for `CCCS(=O)(=O)N[C@@H]1CCCC[C@H]1Nc1nc(-c2c[nH]c3ncccc23)ncc1F` [Compound 362, N-[(1R,2R)-2-[[5-fluoro-2-(1H-pyrrolo[2,3-b]pyridin-3-yl)pyrimidin-4-yl]amino]cyclohexyl]propane-1-sulfonamide], the IC50 under setting [1] was above 20 µM. Still for that read-out and setting: next, `O=C(NC1CCCCC1Nc1nc(-c2c[nH]c3ncc(Cl)cc23)ncc1F)C1CCCC1` (stereo not drawn) [Compound 364, N-[(trans-2-[[2-(5-chloro-1H-pyrrolo[2,3-b]pyridin-3-yl)-5-fluoro-pyrimidin-4-yl]amino]cyclohexyl]cyclopentanecarboxamide]: above 20 µM.

With `CCCC(=O)N[C@@H]1CCCC[C@H]1Nc1nc(-c2c[nH]c3ncc(Cl)cc23)ncc1F` [Compound 369, N-[(1R,2R)-2-[[2-(5-chloro-1H-pyrrolo[2,3-b]pyridin-3-yl)-5-fluoro-pyrimidin-4-yl]amino]cyclohexyl]butanamide], the IC50 under setting [1] is above 20 µM. Consider `CCCNC(=O)N[C@@H]1CCCC[C@H]1Nc1nc(-c2c[nH]c3ncccc23)ncc1F` [Compound 370, 1-[(1R,2R)-2-[[5-fluoro-2-(1H-pyrrolo[2,3-b]pyridin-3-yl)pyrimidin-4-yl]amino]cyclohexyl]-3-propyl-urea], for which the IC50 under setting [1] is above 20 µM. For the compound `CC(C)NC(=O)N1CCCC[C@@H]1CNc1nc(-c2c[nH]c3ncccc23)ncc1F` [Compound 371], the half-maximal inhibitory concentration (IC50) under setting [1] is above 20 µM. On the same count and under the same terms, the value for `CNC(=O)N1CCCC[C@@H]1CNc1nc(-c2c[nH]c3ncccc23)ncc1F` [Compound 374, (R)-2-((5-fluoro-2-(1H-pyrrolo[2,3-b]pyridin-3-yl)pyrimidin-4-ylamino)methyl)-N-methylpiperidine-1-carboxamide] was above 20 µM. As for `CN1CCC(Nc2nc(-c3c[nH]c4ncccc34)ncc2F)C1=O` (stereo not drawn) [Compound 376], under setting [2], the IC50 was in the range of 5 to 20 µM.

As for `O=C1NCCC1Nc1nc(-c2c[nH]c3ncccc23)ncc1F` (stereo not drawn) [Compound 377], under setting [2], the IC50 was above 20 µM.

With `O=C1CCC(CNc2nc(-c3c[nH]c4ncc(Cl)cc34)ncc2F)CN1` (stereo not drawn) [Compound 378], the IC50 under setting [2] is above 20 µM.

For the compound `O=C1NCCC1Nc1nc(-c2c[nH]c3ncc(Cl)cc23)ncc1F` (stereo not drawn) [Compound 380], the half-maximal inhibitory concentration (IC50) under setting [1] is 5 to 20 µM. On the same count and under the same terms, next, `CS(=O)(=O)N1CCCC[C@H]1CNc1nc(-c2c[nH]c3ncc(Cl)cc23)ncc1F` [Compound 384, (S)-2-(5-chloro-1H-pyrrolo[2,3-b]pyridin-3-yl)-5-fluoro-N-((1-(methylsulfonyl)-piperidin-2-yl)methyl)pyrimidin-4-amine]: below 5 µM; `O=S(=O)(C1CC1)N1CCCC[C@H]1CNc1nc(-c2c[nH]c3ncc(Cl)cc23)ncc1F` [Compound 386, (S)-2-(5-chloro-1H-pyrrolo[2,3-b]pyridin-3-yl)-5-fluoro-N-((1-(cyclopropylsulfonyl)-piperidin-2-yl)methyl)pyrimidin-4-amine]: below 5 µM.

With `O=S(=O)(CC(F)(F)F)N1CCCC[C@@H]1CNc1nc(-c2c[nH]c3ncc(Cl)cc23)ncc1F` [Compound 387], the IC50 under setting [2] lay in the range of 5 to 20 µM. For `Fc1cnc(-c2c[nH]c3ncc(Cl)cc23)nc1NCC1CN(Cc2ccccc2)CCO1` (stereo not drawn) [Compound 388, N-((4-benzylmorpholin-2-yl)methyl)-2-(5-chloro-1H-pyrrolo[2,3-b]pyridin-3-yl)-5-fluoropyrimidin-4-amine], the IC50 under setting [1] is above 20 µM.

Consider `CCS(=O)(=O)N1CC[C@H](Nc2nc(-c3c[nH]c4ncc(Cl)cc34)ncc2F)C1` [Compound 399, (S)-2-(5-chloro-1H-pyrrolo[2,3-b]pyridin-3-yl)-N-(1-(ethylsulfonyl)pyrrolidin-3-yl)-5-fluoropyrimidin-4-amine], for which the IC50 under setting [1] is below 5 µM. The same measure, in the same setting: next, `CC(C)S(=O)(=O)N1CC[C@H](Nc2nc(-c3c[nH]c4ncc(Cl)cc34)ncc2F)C1` [Compound 400, (5)-2-(5-chloro-1H-pyrrolo[2,3-b]pyridin-3-yl)-5-fluoro-N-(1-(isopropylsulfonyl)pyrrolidin-3-yl)pyrimidin-4-amine]: 5 to 20 µM; `O=S(=O)(C1CC1)N1CC[C@H](Nc2nc(-c3c[nH]c4ncc(Cl)cc34)ncc2F)C1` [Compound 401, (S)-2-(5-chloro-1H-pyrrolo[2,3-b]pyridin-3-yl)-N-(1-(cyclopropylsulfonyl)pyrrolidin-3-yl)-5-fluoropyrimidin-4-amine]: 5 to 20 µM; `CCCCS(=O)(=O)N1CC[C@H](Nc2nc(-c3c[nH]c4ncc(Cl)cc34)ncc2F)C1` [Compound 402, (S)—N-(1-(butylsulfonyl)pyrrolidin-3-yl)-2-(5-chloro-1H-pyrrolo[2,3-b]pyridin-3-yl)-5-fluoropyrimidin-4-amine]: 5 to 20 µM. On the same count and under the same terms, next, `O=S(=O)(C1CCCC1)N1CC[C@H](Nc2nc(-c3c[nH]c4ncc(Cl)cc34)ncc2F)C1` [Compound 403, (S)-2-(5-chloro-1H-pyrrolo[2,3-b]pyridin-3-yl)-N-(1-(cyclopentylsulfonyl)pyrrolidin-3-yl)-5-fluoropyrimidin-4-amine]: 5 to 20 µM.

As for `CCCCS(=O)(=O)N1CCC(Nc2nc(-c3c[nH]c4ncc(Cl)cc34)ncc2F)C1` (stereo not drawn) [Compound 406], under setting [2], the IC50 was above 20 µM. In the case of `CCS(=O)(=O)N1CCC(Nc2nc(-c3c[nH]c4ncc(Cl)cc34)ncc2F)C1` (stereo not drawn) [Compound 407], the IC50 under setting [2] was above 20 µM. For `CC(C)S(=O)(=O)N1CCC(Nc2nc(-c3c[nH]c4ncc(Cl)cc34)ncc2F)C1` (stereo not drawn) [Compound 408], under setting [2], the IC50 was above 20 µM. Regarding `CCCS(=O)(=O)N1CC[C@H](Nc2nc(-c3c[nH]c4ncc(Cl)cc34)ncc2F)C1` [Compound 410, (S)-2-(5-chloro-1H-pyrrolo[2,3-b]pyridin-3-yl)-5-fluoro-N-(1-(propylsulfonyl)pyrrolidin-3-yl)pyrimidin-4-amine], the IC50 under setting [1] lay in the range of 5 to 20 µM. Same read-out and setting: next, `Fc1cnc(-c2c[nH]c3ncc(Cl)cc23)nc1N[C@H]1CCN(CC2CC2)C1` [Compound 415, (S)-2-(5-chloro-1H-pyrrolo[2,3-b]pyridin-3-yl)-N-(1-(cyclopropylmethyl)pyrrolidin-3-yl)-5-fluoropyrimidin-4-amine]: above 20 µM. `O=C(OC1CCOC1)N1CCC(Nc2nc(-c3c[nH]c4ncc(Cl)cc34)ncc2F)CC1` (stereo not drawn) [Compound 420]: the IC50 under setting [2] was above 20 µM.

Take `O=C(OC1CCOC1)N1CCC(Nc2nc(-c3c[nH]c4ncc(Cl)cc34)ncc2F)C1` (stereo not drawn) [Compound 421]: under setting [2], the IC50 was 5 to 20 µM.

As to `O=C(OC1CCOC1)N1CC(Nc2nc(-c3c[nH]c4ncc(Cl)cc34)ncc2F)C1` [Compound 422, (S)-tetrahydrofuran-3-yl 3-((2-(5-chloro-1H-pyrrolo[2,3-b]pyridin-3-yl)-5-fluoropyrimidin-4-ylamino)azetidine-1-carboxylate], under setting [1], the IC50 was above 20 µM.

`CCCS(=O)(=O)N1CC(Nc2nc(-c3c[nH]c4ncc(Cl)cc34)ncc2F)C1` [Compound 423]: where the note is “Influenza A virus, PR/8, MDCK”, the IC50 is above 20 µM. Take `O=C(O[C@H]1CCOC1)N1CC[C@@H](Nc2nc(-c3c[nH]c4ncc(Cl)cc34)ncc2F)C1` [Compound 424]: the IC50 under setting [1] was above 20 µM. Regarding `CN(C)C(=O)N[C@H]1CCCC[C@@H]1Nc1nc(-c2c[nH]c3ncc(Cl)cc23)ncc1F` [Compound 427, 3-[(1S,2S)-2-[[2-(5-chloro-1H-pyrrolo[2,3-b]pyridin-3-yl)-5-fluoro-pyrimidin-4-yl]amino]cyclohexyl]-1,1-dimethyl-urea], the IC50 under setting [1] is above 20 µM.
